Laboratory results taken from PubChem BioAssay AID328 (DTP/NCI, 2004).
Several values for one entry are separate records, joined by “and”; a condition that tells them apart may be missing. Identical values can stand only once. Toxic doses and inconclusive results are not listed.

System: BDF1 mice, P388 leukemia ip, median survival T/C
Assay: NCI In Vivo Anticancer Drug Screen. Data for tumor model P388 Leukemia (intraperitoneal) in B6D2F1 (BDF1) mice
Details: endpoint: median survival time, higher = longer survival
Summary of the method: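 T/C = treated-group survival ÷ vehicle-control survival; tumour transplanted into mice before dosing.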

COc1cccc2c1C(=O)c1c(O)c3c(c(O)c1C2=O)C[C@@](O)(C(=O)CO)C[C@@H]3OC1CC(N)C(O)C(C)O1 (some centres undefined)
T/C (dose: 0.25 mg/kg/injection, schedule: Q03HX024 (ip), vehicle: saline): 230 % of control
T/C (dose: 0.37 mg/kg/injection, schedule: Q03HX024 (ip), vehicle: saline): 285 % of control
T/C (dose: 0.39 mg/kg/injection, schedule: Q01DX009 (ip), vehicle: water): 152 % of control
T/C (dose: 0.5 mg/kg/injection, schedule: Q01DX009 (ip), vehicle: saline): 250 % of control
T/C (dose: 0.5 mg/kg/injection, schedule: Q03HX024 (ip), vehicle: saline): 250 % of control
T/C (dose: 0.75 mg/kg/injection, schedule: Q03HX024 (ip), vehicle: saline): 240 % of control
T/C (dose: 0.8 mg/kg/injection, schedule: Q01DX004 (ip), vehicle: saline): 270 % of control
T/C (dose: 0.9 mg/kg/injection, schedule: Q01DX009 (ip), vehicle: clinical formulation): 263 % of control
T/C (dose: 1.0 mg/kg/injection, schedule: Q01DX001 (ip), vehicle: saline): 153 % of control
T/C (dose: 1.0 mg/kg/injection, schedule: Q01DX004 (ip), vehicle: saline): 536 % of control
T/C (dose: 1.0 mg/kg/injection, schedule: Q01DX009 (ip), vehicle: saline): 285 % of control
T/C (dose: 1.0 mg/kg/injection, schedule: Q03HX008 (ip), vehicle: water): 250 % of control
T/C (dose: 1.0 mg/kg/injection, schedule: Q03HX016 (ip), vehicle: saline): 290 % of control
T/C (dose: 1.0 mg/kg/injection, schedule: Q04DX003 (ip), vehicle: saline): 106 % of control
T/C (dose: 1.0 mg/kg/injection, schedule: Q04DX009 (ip), vehicle: water): 117 % of control
T/C (dose: 1.2 mg/kg/injection, schedule: Q01DX009 (ip), vehicle: saline): 304 % of control
T/C (dose: 1.2 mg/kg/injection, schedule: Q03HX008 (ip), vehicle: saline): 539 % of control
T/C (dose: 1.3 mg/kg/injection, schedule: Q01DX009 (ip), vehicle: clinical formulation): 473 % of control
T/C (dose: 1.5 mg/kg/injection, schedule: Q01DX009 (ip), vehicle: saline): 361 % of control
T/C (dose: 1.5 mg/kg/injection, schedule: Q03HX024 (sc), vehicle: saline): 95 % of control
T/C (dose: 1.56 mg/kg/injection, schedule: Q01DX009 (ip), vehicle: water): 224 % of control
T/C (dose: 1.6 mg/kg/injection, schedule: Q01DX004 (ip), vehicle: saline): 423 % of control
T/C (dose: 1.73 mg/kg/injection, schedule: Q04DX003 (ip), vehicle: water): 256 % of control
T/C (dose: 1.8 mg/kg/injection, schedule: Q01DX009 (ip), vehicle: saline): 295 % of control and 306 % of control
T/C (dose: 1.8 mg/kg/injection, schedule: Q03HX008 (ip), vehicle: saline): 539 % of control
T/C (dose: 1.8 mg/kg/injection, schedule: Q04DX003 (ip), vehicle: saline): 122 % of control
T/C (dose: 1.8 mg/kg/injection, schedule: Q## X003 (ip), vehicle: saline): 122 % of control
T/C (dose: 2.0 mg/kg/injection, schedule: Q01DX009 (ip), vehicle: clinical formulation): 247 % of control
T/C (dose: 2.0 mg/kg/injection, schedule: Q01DX009 (ip), vehicle: saline): 238 % of control and 250 % of control
T/C (dose: 2.0 mg/kg/injection, schedule: Q03HX008 (ip), vehicle: water): 254 % of control
T/C (dose: 2.0 mg/kg/injection, schedule: Q04DX003 (ip), vehicle: saline): 122 % of control
T/C (dose: 2.0 mg/kg/injection, schedule: Q06HX004 (ip), vehicle: water): 300 % of control
T/C (dose: 2.16 mg/kg/injection, schedule: Q04DX003 (ip), vehicle: water): 247 % of control
T/C (dose: 2.5 mg/kg/injection, schedule: Q01DX009 (ip), vehicle: saline): 119 % of control
T/C (dose: 2.5 mg/kg/injection, schedule: Q01DX009 (sc), vehicle: saline): 115 % of control
T/C (dose: 2.5 mg/kg/injection, schedule: Q04DX003 (ip), vehicle: water): 237 % of control
T/C (dose: 2.7 mg/kg/injection, schedule: Q01DX009 (ip), vehicle: saline): 124 % of control
T/C (dose: 2.7 mg/kg/injection, schedule: Q03HX008 (ip), vehicle: saline): 92 % of control
T/C (dose: 2.7 mg/kg/injection, schedule: Q04DX003 (ip), vehicle: saline): 122 % of control
T/C (dose: 2.7 mg/kg/injection, schedule: Q## X003 (ip), vehicle: saline): 122 % of control
T/C (dose: 2.88 mg/kg/injection, schedule: Q04DX003 (ip), vehicle: water): 241 % of control
T/C (dose: 3.0 mg/kg/injection, schedule: Q01DX009 (ip), vehicle: clinical formulation): 473 % of control
T/C (dose: 3.0 mg/kg/injection, schedule: Q01DX009 (ip), vehicle: saline): 104 % of control
T/C (dose: 3.0 mg/kg/injection, schedule: Q01DX009 (sc), vehicle: saline): 100 % of control
T/C (dose: 3.0 mg/kg/injection, schedule: Q03HX008 (ip), vehicle: water): 243 % of control
T/C (dose: 3.0 mg/kg/injection, schedule: Q04DX004 (ip), vehicle: saline): 112 % of control
T/C (dose: 3.5 mg/kg/injection, schedule: Q01DX009 (ip), vehicle: saline): 90 % of control
T/C (dose: 3.5 mg/kg/injection, schedule: Q01DX009 (sc), vehicle: saline): 100 % of control
T/C (dose: 3.6 mg/kg/injection, schedule: Q01DX004 (ip), vehicle: saline with Tween-80): 123 % of control
T/C (dose: 3.6 mg/kg/injection, schedule: Q04DX003 (ip), vehicle: saline + alcohol): 232 % of control
T/C (dose: 3.6 mg/kg/injection, schedule: Q04DX003 (ip), vehicle: water): 240 % of control and 259 % of control
T/C (dose: 4.0 mg/kg/injection, schedule: Q03HX008 (ip), vehicle: saline): 541 % of control
T/C (dose: 4.0 mg/kg/injection, schedule: Q04DX003 (sc), vehicle: saline): 150 % of control
T/C (dose: 4.0 mg/kg/injection, schedule: Q06HX004 (ip), vehicle: water): 545 % of control
T/C (dose: 4.4 mg/kg/injection, schedule: Q01DX001 (ip), vehicle: saline): 150 % of control
T/C (dose: 4.5 mg/kg/injection, schedule: Q01DX009 (ip), vehicle: clinical formulation): 100 % of control
T/C (dose: 4.5 mg/kg/injection, schedule: Q04DX003 (ip), vehicle: saline): 539 % of control and 571 % of control
T/C (dose: 4.8 mg/kg/injection, schedule: Q04DX003 (ip), vehicle: water): 224 % of control and 247 % of control
T/C (dose: 5.0 mg/kg/injection, schedule: Q01DX001 (ip), vehicle: saline): 252 % of control
T/C (dose: 5.0 mg/kg/injection, schedule: Q03HX008 (ip), vehicle: water): 89 % of control
T/C (dose: 5.0 mg/kg/injection, schedule: Q07DX006 (ip), vehicle: saline): 245 % of control
T/C (dose: 5.5 mg/kg/injection, schedule: Q04DX003 (ip), vehicle: saline): 571 % of control
T/C (dose: 5.5 mg/kg/injection, schedule: Q04DX003 (sc), vehicle: saline): 150 % of control
T/C (dose: 6.0 mg/kg/injection, schedule: Q01DX001 (ip), vehicle: saline): 516 % of control
T/C (dose: 6.0 mg/kg/injection, schedule: Q04DX003 (ip), vehicle: saline + alcohol): 270 % of control
T/C (dose: 6.0 mg/kg/injection, schedule: Q04DX003 (ip), vehicle: saline): 225 % of control and 153 % of control
T/C (dose: 6.0 mg/kg/injection, schedule: Q04DX003 (ip), vehicle: water): 250 % of control and 106 % of control and 123 % of control
T/C (dose: 6.0 mg/kg/injection, schedule: Q## X003 (ip), vehicle: saline): 153 % of control
T/C (dose: 6.6 mg/kg/injection, schedule: Q01DX001 (iv), vehicle: saline): 109 % of control
T/C (dose: 6.67 mg/kg/injection, schedule: Q04DX003 (ip), vehicle: saline): 271 % of control
T/C (dose: 7.5 mg/kg/injection, schedule: Q01DX001 (ip), vehicle: saline): 295 % of control
T/C (dose: 7.5 mg/kg/injection, schedule: Q01DX001 (sc), vehicle: saline): 150 % of control
T/C (dose: 7.5 mg/kg/injection, schedule: Q07DX006 (ip), vehicle: saline): 409 % of control
T/C (dose: 8.0 mg/kg/injection, schedule: Q04DX009 (ip), vehicle: water): 150 % of control
T/C (dose: 8.4 mg/kg/injection, schedule: Q03HX008 (ip), vehicle: water): 83 % of control
T/C (dose: 10.0 mg/kg/injection, schedule: Q01DX001 (ip), vehicle: water): 268 % of control
T/C (dose: 10.0 mg/kg/injection, schedule: Q01DX001 (iv), vehicle: saline): 117 % of control
T/C (dose: 10.0 mg/kg/injection, schedule: Q07DX006 (ip), vehicle: saline): 313 % of control
T/C (dose: 12.0 mg/kg/injection, schedule: Q01DX001 (ip), vehicle: saline): 486 % of control and 516 % of control (2×)
T/C (dose: 15.0 mg/kg/injection, schedule: Q01DX001 (iv), vehicle: saline): 235 % of control and 312 % of control
T/C (dose: 16.0 mg/kg/injection, schedule: Q04DX009 (ip), vehicle: water): 108 % of control
T/C (dose: 16.7 mg/kg/injection, schedule: Q01DX001 (ip), vehicle: water): 112 % of control
T/C (dose: 20.0 mg/kg/injection, schedule: Q01DX001 (ip), vehicle: saline): 104 % of control
T/C (dose: 20.0 mg/kg/injection, schedule: Q01DX001 (ip), vehicle: water): 79 % of control
